{
  "source": "patent US5283246A",
  "about": "“Trimetazidine compounds” (Adir et Compagnie, priority 1991, dated 1994)",
  "key": {"isolated hearts of rats": {"system": "isolated hearts of rats", "experiment": "Hypoxia reoxygenation on the isolated heart of a rat", "set-up": "species or system Wistar rat", "method": "The hearts of male Wistar rats (325-375 g--Charles River breed) anaesthetized by the intraperitoneal route with sodium pentobarbital (30 mg/kg) are removed after the injection of heparin i.v. (1 ml/kg) and rapidly perfused by the Langendorff technique at a constant pressure of 76 mmhg and stimulated electrically at 5 Hz. The isovolumetric contractions are recorded by way of a small polyethylene balloon connected to a pressure sensor (P23-Gould) introduced into the left ventricle and inflated so as to obtain a diastolic pressure of approximately 10 mmhg. The physiological solution used, maintained at 37° C., has the following composition (mM): NaCl 118; KCl 4.7; KH2 PO4 1.2; MgCl2 1.2; CaCl2 1.3; NaHCO3 25; glucose 8, pH 7.4/95% O2 +5% CO2.\nAfter a period of stabilization of from 15 to 30 minutes, the heart is subjected to hypoxia for 60 minutes (effected with 95% N2 and 5% CO2; PO2 <40 mmHg), followed by reoxygenation for 30 minutes; the compound is added to the incubation medium 15 minutes before and during the period of hypoxia."}, "pigs": {"system": "pigs", "experiment": "Myocardial ischaemia induced by coronary stenosis in pigs", "type": "in vivo, Large White pig", "method": "The study is carried out on \"Large White\" pigs of both sexes aged 3 months and weighing 21 to 26 kg. The animals are tranquillized using midazolam (I mg/kg i.m.), then anaesthetized with sodium thiopental (8 mg/kg i.v.). The anaesthesia is maintained by a perfusion of 6 to 8 mg/kg/h. They are immediately intubated and ventilated with a mixture of air+O2. A \"T\" thoracotomy is carried out by longitudinal section of the sternum and incision between the 4th and 5th rib. The heart is suspended in a pericardial cradle made by cutting and fixing the pericardium at four points to the thoracic muscles. An electromagnetic flow ring is placed around the anterior interventricular branch of the left coronary, and a small pneumatic balloon is placed immediately downstream of that ring. This assembly is for the purpose of effecting coronary stenosis by controlling the flow. Piezoelectric crystals connected to a Triton sonomicrometer are implanted in the lower endocardium of the left ventricular wall according to a circumferential plane perpendicular to the cardiac axis. These crystals are for recording the regional myocardial contractility and endocardial ECGs in the area supplied by the stenosed coronary artery. Epicardial ECGs are also recorded in those areas by means of electrodes fixed to the myocardium. Myocardial ischaemia is effected by inflating the small balloon which induces a reduction in flow of 50 to 60 Two identical 3 minute stenoses with reproducible and reversible effects are carried out, separated by a recovery period of 55 minutes. The treatment is administered by five minutes' perfusion by the venous route 10 minutes before the stenosis perfusion of solvent before first stenosis perfusion of the compound or solvent before the second stenosis. The regional myocardial contractility is determined by the fraction of systolic shortening of the segment lengths comprised between the piezoelectric crystals. The hypokinesis in the ischaemic zone is expressed as a percentage variation in relation to the contractility measured in the control period. The modification of the epicardial and endocardial ECGs in the ischaemic zone consists in a superelevation of the segment S.T. measured in millivolts (mV)."}, "cardiac cells": {"system": "cardiac cells", "experiment": "Oxidative necrosis of cardiac cells induced by hypoxanthine/xanthine-oxidase (XO + HX)", "type": "cell-based, rat (newborn)", "conditions": "Rattus norvegicus, 4 h", "method": "The cardiac cells of newborn rats are used between the 5th and 6th days after placing in culture. Oxidative necrosis is induced by the free radical-producing enzymatic system hypoxanthine (HX, 1 -mm) and xanthineoxidase (XO, 10 mU/ml). The necrosis is evaluated 4 hours after the addition of XO/HX by measuring by spectrophotometry the cytosolic α-hydroxybutyrate dehydrogenase (a-HBDH) activity liberated in the supernatant. The cells are treated with the test compounds 16 hours and 1 hour before the beginning of the experiment after renewing the medium. At the beginning of the experiment, the treatment is carried out again one last time.\nTable 3 lists the necrosis indices of cardiac cells induced by the hypoxanthine/xanthine-oxidase system alone or in the presence of increasing concentrations of the compounds of the invention."}, "human LDLs": {"system": "human LDLs", "experiment": "Modification of human LDLs by copper sulphate (lipid peroxidation, MDA production)", "type": "biochemical", "conditions": "copper sulphate 5×10^-6 M, 24 hours; read-out: IC50, inhibition of copper-induced modification (MDA production) of human LDLs", "method": "Human LDLs are incubated for 24 hours in the presence of copper sulphate (5×10^-6 M) and in the absence or presence of the compounds tested (10^-7 M to 10^-4 M). After incubation, the peroxidation of the LDLs is evaluated by electrophoresis on agar gel and by the formation of one of the products of lipid peroxidation malonic dialdehyde (MDA), (Parthasarathy S., Young S. G., Witztum J. L., Pittman R. C. and Steinberg, D.; J. Clin. invest. 77; 641-644, 1986).\nThe activity of the tested compounds is evaluated by calculating those concentrations (IC50) that reduce the production of MDA by 50% compared with control experiments in the absence of the tested compound."}, "rat aorta": {"system": "rat aorta", "experiment": "Study on isolated vessels: vascular relaxing effect on a rat aorta contracted by potassium (80 mM)", "set-up": "species or system Wistar rat", "conditions": "rat aorta rings without endothelium contracted by potassium (80 mM)", "method": "The thoracic aorta of Wistar rats (325-375 g) that have been anaesthetized by the intraperitoneal route with sodium pentobarbital (30 mg/kg) is removed and dissected into rings 3 mm in length; the endothelium is removed by gentle abrasion using a piece of wood. Each ring is connected to a Statham pressure sensor (UC2-Gould). The initial pressure applied is 2.5 g. The physiological solution used, maintained at 37° C., has the following composition (mM): NaCl 112; KCl 5; KH2 PO4 1; MgSO4 1.2; CaCl2 2.5; NaHCO3 25; glucose 11.; EDTA 0.026. After a stabilization period of 90 minutes, the aorta rings are subjected to a hyperpotassic medium (80 MM KCl and 37 mM NaCl). When the contraction is stable, cumulative concentrations of compound are added to the medium every 15 minutes. The relaxation values obtained enable calculation of the IC50."}, "[1]": {"conditions": "1 mg/kg intravenous before second stenosis, compared with first stenosis"}},
  "data": [
    {"smiles": "COc1ccc(CN2CCN(CCCCCOc3cc(C)c(O)c(C)c3C)CC2)c(OC)c1OC", "note": "[Example 10, 4-(2,3,4-trimethoxybenzyl)-l-[5-(4-hydroxy-2,3,5-trimethylphenoxy)pentyl]piperazine]", "values": [
      {"measurement": "functional recovery of the hearts during reoxygenation", "setting": "isolated hearts of rats; Example 1 at 3×10^-7 M, 10 at 10^-7 M, 13 at 7×10^-7 M, 40% in the control experiments", "result": "more than 70%"},
      {"measurement": "reduction of the developing contracture at the end of 30 minutes reoxygenation", "setting": "isolated hearts of rats; end of 30 min reoxygenation, Example 1 at 3×10^-7 M, 10 at 10^-7 M, 13 at 7×10^-7 M, vs control", "result": "more than 70%"},
      {"measurement": "Contracture, hypoxia 10 min", "setting": "isolated hearts of rats; hypoxia 10 min, Example 1 at 3 × 10^-7 M, Example 10 at 10^-7 M, Example 13 at 7 × 10^-7 M, control 23.7 ± 6.8", "result": "15.3 ± 3.7", "unit": "mm Hg"},
      {"measurement": "Contracture, hypoxia 30 min", "setting": "isolated hearts of rats; hypoxia 30 min, Example 1 at 3 × 10^-7 M, Example 10 at 10^-7 M, Example 13 at 7 × 10^-7 M, control 33.7 ± 8.9", "result": "16.0 ± 6.4", "unit": "mm Hg"},
      {"measurement": "Contracture, hypoxia 60 min", "setting": "isolated hearts of rats; hypoxia 60 min, Example 1 at 3 × 10^-7 M, Example 10 at 10^-7 M, Example 13 at 7 × 10^-7 M, control 32.3 ± 7.4", "result": "14.7 ± 4.4", "unit": "mm Hg"},
      {"measurement": "Contracture, reoxygenation 15 min", "setting": "isolated hearts of rats; reoxygenation 15 min, Example 1 at 3 × 10^-7 M, Example 10 at 10^-7 M, Example 13 at 7 × 10^-7 M, control 20.6 ± 7.8", "result": "7.3 ± 5.5", "unit": "mm Hg"},
      {"measurement": "Contracture, reoxygenation 30 min", "setting": "isolated hearts of rats; reoxygenation 30 min, Example 1 at 3 × 10^-7 M, Example 10 at 10^-7 M, Example 13 at 7 × 10^-7 M, control 12.3 ± 6.1", "result": "2.7 ± 2.7", "unit": "mm Hg"},
      {"measurement": "ST superelevation, endocardial ECG, second stenosis (ST2)", "setting": "pigs; 1 mg/kg i.v. before second stenosis, ST1 (solvent) of same group 3.4 ± 0.4, control ST2 2.4 ± 0.51", "result": "1.9 ± 0.5", "unit": "mV"},
      {"measurement": "ST superelevation, epicardial ECG, second stenosis (ST2)", "setting": "pigs; 1 mg/kg i.v. before second stenosis, ST1 (solvent) of same group 4.6 ± 1.0, control ST2 3.16 ± 1.2", "result": "2.5 ± 0.6", "unit": "mV"},
      {"measurement": "% residual myocardial contractility, second stenosis (ST2)", "setting": "pigs; 1 mg/kg i.v. before second stenosis, ST1 (solvent) of same group 20.4 ± 3.3, control ST2 25.2 ± 3.0", "result": "29.4 ± 2.6", "unit": "%"},
      {"measurement": "improvement in the regional contractility in the ischaemic zone", "setting": "pigs; [1]", "result": 50, "unit": "%"},
      {"measurement": "reduction of the superelevation of the segment ST, endocardial electrocardiogram", "setting": "pigs; [1]", "result": 45, "unit": "%"},
      {"measurement": "reduction of the superelevation of the segment ST, epicardial electrocardiogram", "setting": "pigs; [1]", "result": 45, "unit": "%"},
      {"measurement": "activity at 10 µM", "setting": "cardiac cells; 10^-5 M, XO + HX, control XO + HX = 100.0, read-out: necrosis index of cardiac cells, XO + HX, compound 10^-5 M", "result": "12.6 ± 1.3", "unit": "%"},
      {"measurement": "activity at 1 µM", "setting": "cardiac cells; 10^-6 M, XO + HX, control XO + HX = 100.0, read-out: necrosis index of cardiac cells, XO + HX, compound 10^-6 M", "result": "18.8 ± 3.7", "unit": "%"},
      {"measurement": "activity at 0.1 µM", "setting": "cardiac cells; 10^-7 M, XO + HX, control XO + HX = 100.0, read-out: necrosis index of cardiac cells, XO + HX, compound 10^-7 M", "result": "88.8 ± 0.4", "unit": "%"},
      {"measurement": "minimal effective concentration", "setting": "cardiac cells; XO + HX induced oxidative necrosis, read-out: concentration at which compounds prove to be protective against necrosis", "result": "≥ 0.1", "unit": "µM"},
      {"measurement": "IC50", "setting": "human LDLs", "result": 30, "unit": "nM"},
      {"measurement": "IC50", "setting": "rat aorta", "result": 2000, "unit": "nM"}
    ]}
  ]
}
